Values joined by “and” are separate entries in the source; they are usually repeats but may differ in a detail not shown here. Equal values may be shown once.
Legend:
[1] = tested on: P. falciparum PfPKGT618Q/R484A/Q532A/D533A-3xHA transgenic line; assay: Growth assay in presence of compound 2, triple mutant line; type: cell-based, Plasmodium falciparum; details: 1 μM; duration of the experiment 7 days
Experimental: (§1) P. falciparum lines 3D7/attB [22], 3D7/PfPKGT618Q [6], and 3D7/PfPKG-HA [35] were cultured according to standard procedures in human A+ erythrocytes (National Blood Transfusion Service, UK) and RPMI 1640 medium supplemented with 0.5% Albumax type II (Lifetech) and 5 nM WR99210 (Jacobus Pharmaceuticals, New Jersey).
(§2) P. falciparum cultures were synchronised by repeated sorbitol lysis, then either compound 2 (1μM) or DMSO was added to late trophozoites / early schizonts and cultures harvested 16h later to count newly formed ring stage parasites. Cells were fixed in 4% formaldehyde/0.1% glutaraldehyde in PBS for 30 minutes at room temperature, stained with SYBR green (Lifetech) diluted 1:10000 in PBS for 30 minutes, washed with PBS and analysed on a FACSCalibur cell analyser (Becton Dickinson). FACS data were analysed using FlowJo software. For growth assays, starting parasitaemia was 0.2% ring stages and cultured in presence or absence of compound 2 (1 μM). Samples were taken every 48h and fixed, stained, and analyzed as described above.

[2] = tested on: P. falciparum PfPKGT618Q/R484A-3xHA transgenic line; assay: Growth assay in presence of compound 2, R484A line; type: cell-based, Plasmodium falciparum; details: 1 μM; duration of the experiment 7 days
Experimental: as §1, §2

[3] = tested on: P. falciparum PfPKGT618Q-3xHA control line; assay: Growth assay in presence of compound 2, T618Q-3xHA control line; type: cell-based, Plasmodium falciparum; details: 1 μM; duration of the experiment 7 days
Experimental: as §1, §2

[4] = tested on: P. falciparum transgenic lines with the capping triad mutations; assay: Schizont accumulation assay, capping triad mutant lines; type: cell-based, Plasmodium falciparum; details: 1 μM; Giemsa-stained blood films
Experimental: P. falciparum cultures were synchronised by repeated sorbitol lysis, then either compound 2 (1μM) or DMSO was added to late trophozoites / early schizonts and cultures harvested 16h later to count newly formed ring stage parasites. […] FACS data were analysed using FlowJo software. For growth assays, starting parasitaemia was 0.2% ring stages and cultured in presence or absence of compound 2 (1 μM). Samples were taken every 48h and fixed, stained, and analyzed as described above.

PfPKG T618Q mutant = tested on: PfPKG T618Q mutant; set-up: method as in PMID 18532880, PMID 19915077, PMID 23675297, PMID 24594931; details: T618Q gatekeeper substitution; cited from earlier work
[5] = tested on: P. falciparum PfPKGT618Q replacement line and PfPKGT618Q-3xHA control line; assay: Schizont accumulation assay, T618Q lines; type: cell-based, Plasmodium falciparum; details: 1 μM; Giemsa-stained blood films
PfCNB-C = tested on: PfCNB-C; set-up: method as in PMID 12817987; details: cited from earlier work
PfPKG (1-853) Wild Type = molecular target: T1, PfPKG (1-853) Wild Type (Plasmodium falciparum, UniProt Q8I719); type: biochemical
T1 construct: full-length PfPKG (residues 1–853); His-tag (pQTEV, TEV site) (N, cleaved yes); made in house; host or cells: E. coli TP2000 (delta-cya)
T1 sequence (Q8I719 whole entry, the tested form may be a part): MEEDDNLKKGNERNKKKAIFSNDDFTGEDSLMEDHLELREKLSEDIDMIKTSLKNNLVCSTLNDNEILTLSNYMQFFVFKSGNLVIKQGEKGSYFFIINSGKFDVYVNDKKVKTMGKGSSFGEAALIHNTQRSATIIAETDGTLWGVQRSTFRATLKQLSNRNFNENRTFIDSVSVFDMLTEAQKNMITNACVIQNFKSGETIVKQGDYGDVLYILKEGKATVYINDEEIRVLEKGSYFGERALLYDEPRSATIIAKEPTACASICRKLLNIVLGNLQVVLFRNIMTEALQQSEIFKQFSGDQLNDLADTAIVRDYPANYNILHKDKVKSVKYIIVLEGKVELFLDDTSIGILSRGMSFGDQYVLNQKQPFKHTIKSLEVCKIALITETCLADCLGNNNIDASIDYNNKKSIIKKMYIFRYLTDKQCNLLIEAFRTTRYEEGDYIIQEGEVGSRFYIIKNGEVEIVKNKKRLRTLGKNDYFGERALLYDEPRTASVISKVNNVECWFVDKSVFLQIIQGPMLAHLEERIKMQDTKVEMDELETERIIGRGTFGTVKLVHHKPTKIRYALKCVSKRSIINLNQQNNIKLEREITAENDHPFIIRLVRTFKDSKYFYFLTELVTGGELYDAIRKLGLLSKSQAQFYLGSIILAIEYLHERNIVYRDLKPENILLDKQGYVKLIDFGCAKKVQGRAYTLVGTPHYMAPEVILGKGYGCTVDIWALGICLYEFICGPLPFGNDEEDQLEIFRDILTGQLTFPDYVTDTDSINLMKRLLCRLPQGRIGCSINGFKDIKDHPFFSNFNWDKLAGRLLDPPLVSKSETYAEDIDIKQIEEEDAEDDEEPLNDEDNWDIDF
Experimental: (§3) Kinase activity was determined using a microfluidic mobility-shift assay on a Caliper DeskTop Profiler (Caliper Life Sciences, PerkinElmer). […] Reaction mixtures without cyclic nucleotide were used as controls. For electrophoretic separation of substrate and product, a ProfilerPro LabChip (4-sipper mode; Caliper Life Sciences, PerkinElmer) was used under the following conditions: downstream voltage-500 V, upstream voltage-1,900 V with a screening pressure of-1.3 psi.

PfPKG (1-853) D533A = molecular target: T2, PfPKG (1-853) D533A (Plasmodium falciparum, UniProt Q8I719, D533A); type: biochemical
T2 construct: full-length PfPKG (residues 1–853); His-tag (pQTEV, TEV site) (N, cleaved yes); made in house; host or cells: E. coli TP2000 (delta-cya)
T2 sequence (Q8I719 whole entry D533A, the tested form may be a part): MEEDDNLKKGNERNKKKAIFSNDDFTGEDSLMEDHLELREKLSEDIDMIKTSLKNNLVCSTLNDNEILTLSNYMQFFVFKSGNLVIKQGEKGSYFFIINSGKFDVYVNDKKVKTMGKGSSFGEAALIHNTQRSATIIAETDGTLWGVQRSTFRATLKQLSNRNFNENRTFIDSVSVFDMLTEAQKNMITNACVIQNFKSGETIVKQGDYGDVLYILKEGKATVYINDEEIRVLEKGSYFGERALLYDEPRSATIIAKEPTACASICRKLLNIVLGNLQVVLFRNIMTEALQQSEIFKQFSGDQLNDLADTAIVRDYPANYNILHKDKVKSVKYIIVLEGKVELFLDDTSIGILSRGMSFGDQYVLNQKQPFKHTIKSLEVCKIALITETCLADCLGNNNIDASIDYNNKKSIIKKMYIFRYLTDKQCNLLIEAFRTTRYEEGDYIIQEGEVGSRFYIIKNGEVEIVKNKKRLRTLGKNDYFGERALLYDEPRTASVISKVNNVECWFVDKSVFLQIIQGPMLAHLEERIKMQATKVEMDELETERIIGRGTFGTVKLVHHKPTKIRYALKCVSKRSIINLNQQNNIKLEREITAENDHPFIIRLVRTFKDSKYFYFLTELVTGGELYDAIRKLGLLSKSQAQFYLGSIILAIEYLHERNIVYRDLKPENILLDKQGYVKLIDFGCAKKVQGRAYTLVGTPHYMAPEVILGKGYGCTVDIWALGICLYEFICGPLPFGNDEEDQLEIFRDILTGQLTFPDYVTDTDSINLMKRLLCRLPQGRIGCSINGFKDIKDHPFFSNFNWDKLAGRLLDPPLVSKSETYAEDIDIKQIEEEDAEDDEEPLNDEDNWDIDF
Experimental: as §3

[6] = molecular target: T3, PfPKG (1-853) R484A/Q532A/D533A (Plasmodium falciparum, UniProt Q8I719, D533A/Q532A/R484A); type: biochemical; details: triple mutant versus wild type
T3 construct: full-length PfPKG (residues 1–853); His-tag (pQTEV, TEV site) (N, cleaved yes); made in house; host or cells: E. coli TP2000 (delta-cya)
T3 sequence (Q8I719 whole entry R484A/Q532A/D533A, the tested form may be a part): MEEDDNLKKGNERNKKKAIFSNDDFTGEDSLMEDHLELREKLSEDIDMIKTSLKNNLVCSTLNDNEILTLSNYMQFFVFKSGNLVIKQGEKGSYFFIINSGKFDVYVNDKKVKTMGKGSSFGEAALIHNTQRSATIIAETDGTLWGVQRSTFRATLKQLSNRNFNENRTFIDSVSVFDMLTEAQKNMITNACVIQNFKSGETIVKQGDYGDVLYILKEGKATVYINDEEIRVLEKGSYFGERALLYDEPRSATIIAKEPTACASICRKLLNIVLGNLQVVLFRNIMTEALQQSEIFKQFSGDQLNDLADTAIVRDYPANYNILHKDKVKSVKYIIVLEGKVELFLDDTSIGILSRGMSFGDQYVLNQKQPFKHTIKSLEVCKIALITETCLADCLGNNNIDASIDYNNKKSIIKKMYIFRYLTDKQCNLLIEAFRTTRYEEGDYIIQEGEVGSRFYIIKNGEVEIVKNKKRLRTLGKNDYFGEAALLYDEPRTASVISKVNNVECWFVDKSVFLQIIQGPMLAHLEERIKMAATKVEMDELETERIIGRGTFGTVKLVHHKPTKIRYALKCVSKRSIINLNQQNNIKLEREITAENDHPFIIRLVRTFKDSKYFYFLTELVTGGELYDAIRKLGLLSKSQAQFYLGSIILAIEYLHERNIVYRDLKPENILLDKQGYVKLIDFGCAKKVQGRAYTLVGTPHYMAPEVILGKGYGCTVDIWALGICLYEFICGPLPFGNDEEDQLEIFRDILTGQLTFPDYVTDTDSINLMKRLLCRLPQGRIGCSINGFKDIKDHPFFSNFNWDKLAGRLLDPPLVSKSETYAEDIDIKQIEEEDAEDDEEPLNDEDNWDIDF
Experimental: as §3

human PKG Iβ CNB-B = tested on: human PKG Iβ CNB-B; set-up: method as in PMID 24239458; details: cited from earlier work
[7] = molecular target: T4, PfPKG CNB-D (401–542) Wild type (Plasmodium falciparum, UniProt Q8I719); type: binding
T4 construct: 401–542 for CNB-D; His-tag (pQTEV, TEV site) (N, cleaved yes); made in house; host or cells: E. coli TP2000 (delta-cya)
T4 sequence (Q8I719 401-542): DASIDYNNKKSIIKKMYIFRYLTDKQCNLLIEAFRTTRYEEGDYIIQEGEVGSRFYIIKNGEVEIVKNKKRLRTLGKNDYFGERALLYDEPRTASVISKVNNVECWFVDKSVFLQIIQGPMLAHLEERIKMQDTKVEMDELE
Experimental: (§4) Measurements were performed in 150 mM NaCl, 20 mM MOPS plus 0.005% (w/v) CHAPS pH 7.0 using the Fusion a-FP microtiter plate reader at room temperature in a 384 well microtiterplate (Perkin Elmer, Optiplate, black). […] The KD values were calculated from sigmoidal dose-response curves.
(§5) For competition FP experiments, the protein concentration and the concentration of 8-Fluo-cGMP were fixed to give a polarization signal that was 50% of the maximum value obtained from direct FP measurements. […] FP signals were detected as indicated above. […] The EC50 values were calculated from sigmoidal dose-response curves.

[8] = molecular target: T5, PfPKG PfCNB-A (residues 1–173) (Plasmodium falciparum, UniProt Q8I719); type: binding; details: competition with 8-Fluo-cGMP, read-out: EC50 ± SEM (n) competition measurements
T5 construct: residues 1–173 for CNB-A; His-tag (pQTEV, TEV site) (N, cleaved yes); made in house; host or cells: E. coli TP2000 (delta-cya)
T5 sequence (Q8I719 1-173): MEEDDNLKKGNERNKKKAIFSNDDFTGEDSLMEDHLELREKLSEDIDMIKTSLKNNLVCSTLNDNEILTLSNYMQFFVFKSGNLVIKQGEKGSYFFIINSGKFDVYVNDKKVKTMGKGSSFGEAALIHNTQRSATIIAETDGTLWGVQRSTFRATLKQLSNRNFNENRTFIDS
Experimental: as §4, §5

[9] = molecular target: T6, PfPKG full regulatory domain (1–542) R484A (Plasmodium falciparum, UniProt Q8I719, R484A); type: binding; details: read-out: EC50 ± SEM (n) competition experiments
T6 construct: PfPKG full regulatory domain (1–542); His-tag (pQTEV, TEV site) (N, cleaved yes); made in house; host or cells: E. coli TP2000 (delta-cya)
Experimental: as §4, §5

[10] = molecular target: T7, PfPKG full regulatory domain (1–542) Wild type (Plasmodium falciparum, UniProt Q8I719); type: binding; details: read-out: EC50 ± SEM (n) competition experiments
T7 construct: PfPKG full regulatory domain (1–542); His-tag (pQTEV, TEV site) (N, cleaved yes); made in house; host or cells: E. coli TP2000 (delta-cya)
Experimental: as §4, §5

[11] = molecular target: T8, PfPKG CNB-D (401–542) Q532A (Plasmodium falciparum, UniProt Q8I719, Q532A); type: binding; details: PfCNB-D Q532A; read-out: EC50 ± SEM (n) competition experiments
T8 construct: 401–542 for CNB-D; His-tag (pQTEV, TEV site) (N, cleaved yes); made in house; host or cells: E. coli TP2000 (delta-cya)
T8 sequence (Q8I719 401-542 Q532A): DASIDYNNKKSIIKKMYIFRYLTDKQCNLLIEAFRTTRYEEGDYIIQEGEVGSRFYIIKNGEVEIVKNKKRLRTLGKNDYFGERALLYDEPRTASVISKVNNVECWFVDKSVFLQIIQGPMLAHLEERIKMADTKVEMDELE
Experimental: as §4, §5

[12] = molecular target: T9, PfPKG CNB-D (401–542) R484A (Plasmodium falciparum, UniProt Q8I719, R484A); type: binding; details: PfCNB-D R484A; read-out: EC50 ± SEM (n) competition experiments
T9 construct: 401–542 for CNB-D; His-tag (pQTEV, TEV site) (N, cleaved yes); made in house; host or cells: E. coli TP2000 (delta-cya)
T9 sequence (Q8I719 401-542 R484A): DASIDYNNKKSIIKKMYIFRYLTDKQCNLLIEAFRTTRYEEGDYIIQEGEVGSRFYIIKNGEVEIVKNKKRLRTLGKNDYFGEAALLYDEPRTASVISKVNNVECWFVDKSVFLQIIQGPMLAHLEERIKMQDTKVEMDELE
Experimental: as §4, §5

[13] = molecular target: T10, PfPKG full regulatory domain (1–542) Q532A (Plasmodium falciparum, UniProt Q8I719, Q532A); type: binding; details: read-out: EC50 ± SEM (n) competition experiments
T10 construct: PfPKG full regulatory domain (1–542); His-tag (pQTEV, TEV site) (N, cleaved yes); made in house; host or cells: E. coli TP2000 (delta-cya)
Experimental: as §4, §5

[14] = molecular target: T11, PfPKG full regulatory domain (1–542) D533A (Plasmodium falciparum, UniProt Q8I719, D533A); type: binding; details: read-out: EC50 ± SEM (n) competition experiments
T11 construct: PfPKG full regulatory domain (1–542); His-tag (pQTEV, TEV site) (N, cleaved yes); made in house; host or cells: E. coli TP2000 (delta-cya)
T11 sequence (Q8I719 1-542 D533A): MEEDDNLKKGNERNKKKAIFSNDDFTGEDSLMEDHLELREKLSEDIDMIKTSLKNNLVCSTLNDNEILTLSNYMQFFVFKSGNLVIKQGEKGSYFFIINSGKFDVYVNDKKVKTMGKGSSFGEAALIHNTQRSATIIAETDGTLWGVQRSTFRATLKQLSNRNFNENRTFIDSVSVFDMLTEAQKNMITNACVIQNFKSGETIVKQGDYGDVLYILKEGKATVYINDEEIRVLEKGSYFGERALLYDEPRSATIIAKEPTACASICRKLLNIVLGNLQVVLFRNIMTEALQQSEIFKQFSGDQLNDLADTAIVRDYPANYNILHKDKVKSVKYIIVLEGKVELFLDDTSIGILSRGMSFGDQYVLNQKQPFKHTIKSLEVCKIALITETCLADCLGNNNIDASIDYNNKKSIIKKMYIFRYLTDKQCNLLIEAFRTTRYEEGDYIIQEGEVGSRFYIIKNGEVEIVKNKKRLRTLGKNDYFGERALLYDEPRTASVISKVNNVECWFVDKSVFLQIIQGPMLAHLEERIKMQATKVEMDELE
Experimental: as §4, §5

[15] = molecular target: T12, PfPKG CNB-D (401–542) D533A (Plasmodium falciparum, UniProt Q8I719, D533A); type: binding; details: PfCNB-D D533A; read-out: EC50 ± SEM (n) competition experiments
T12 construct: 401–542 for CNB-D; His-tag (pQTEV, TEV site) (N, cleaved yes); made in house; host or cells: E. coli TP2000 (delta-cya)
T12 sequence (Q8I719 401-542 D533A): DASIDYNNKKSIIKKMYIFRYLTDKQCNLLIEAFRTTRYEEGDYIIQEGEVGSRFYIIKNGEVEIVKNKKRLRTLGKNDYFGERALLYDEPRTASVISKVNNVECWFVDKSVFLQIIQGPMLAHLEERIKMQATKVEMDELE
Experimental: as §4, §5

[16] = molecular target: T13, PfPKG full regulatory domain (1–542) R484A/Q532A/D533A (Plasmodium falciparum, UniProt Q8I719, D533A/Q532A/R484A); type: binding; details: read-out: EC50 ± SEM (n) competition experiments
T13 construct: PfPKG full regulatory domain (1–542); His-tag (pQTEV, TEV site) (N, cleaved yes); made in house; host or cells: E. coli TP2000 (delta-cya)
T13 sequence (Q8I719 1-542 R484A/Q532A/D533A): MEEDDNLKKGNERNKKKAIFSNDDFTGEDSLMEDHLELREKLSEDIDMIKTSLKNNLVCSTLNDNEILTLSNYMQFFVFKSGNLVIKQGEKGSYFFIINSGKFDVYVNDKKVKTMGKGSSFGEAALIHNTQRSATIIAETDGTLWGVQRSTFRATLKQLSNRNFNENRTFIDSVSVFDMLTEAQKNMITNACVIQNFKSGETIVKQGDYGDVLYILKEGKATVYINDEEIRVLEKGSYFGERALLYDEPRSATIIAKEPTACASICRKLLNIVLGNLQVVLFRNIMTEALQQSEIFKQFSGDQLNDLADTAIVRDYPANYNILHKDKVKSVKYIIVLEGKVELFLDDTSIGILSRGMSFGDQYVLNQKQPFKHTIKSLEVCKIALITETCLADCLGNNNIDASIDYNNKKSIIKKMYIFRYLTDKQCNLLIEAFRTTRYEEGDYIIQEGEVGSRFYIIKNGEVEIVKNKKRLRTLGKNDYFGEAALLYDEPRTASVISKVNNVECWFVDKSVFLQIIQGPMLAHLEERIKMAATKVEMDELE
Experimental: as §4, §5

[17] = molecular target: T14, PfPKG CNB-D (401–542) R484A/Q532A/D533A (Plasmodium falciparum, UniProt Q8I719, D533A/Q532A/R484A); type: binding; details: PfCNB-D R484A/Q532A/D533A; read-out: EC50 ± SEM (n) competition experiments
T14 construct: 401–542 for CNB-D; His-tag (pQTEV, TEV site) (N, cleaved yes); made in house; host or cells: E. coli TP2000 (delta-cya)
T14 sequence (Q8I719 401-542 R484A/Q532A/D533A): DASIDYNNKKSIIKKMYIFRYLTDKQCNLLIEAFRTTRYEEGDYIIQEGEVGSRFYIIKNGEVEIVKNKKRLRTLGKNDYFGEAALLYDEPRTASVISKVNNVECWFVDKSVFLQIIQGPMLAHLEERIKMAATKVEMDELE
Experimental: as §4, §5

[18] = molecular target: T15, PfPKG PfCNB-B (residues 158–294) (Plasmodium falciparum, UniProt Q8I719); assay: Competition FP assay, isolated PfCNB-B domain; type: binding; details: competition with 8-Fluo-cGMP, read-out: EC50 ± SEM (n) competition measurements
T15 construct: 158–294 for CNB-B; His-tag (pQTEV, TEV site) (N, cleaved yes); made in house; host or cells: E. coli TP2000 (delta-cya)
T15 sequence (Q8I719 158-294): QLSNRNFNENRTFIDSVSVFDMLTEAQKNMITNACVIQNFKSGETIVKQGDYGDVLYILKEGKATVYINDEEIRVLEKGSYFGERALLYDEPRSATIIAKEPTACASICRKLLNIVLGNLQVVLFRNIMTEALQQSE
Experimental: as §4, §5

[19] = tested on: PfPKG with disabled PfCNB-D; set-up: method as in PMID 12817987; details: disabling PfCNB-D by mutation of a putative cGMP-binding residue; cited from earlier work
[20] = molecular target: T16, PfCNB-C (residues 275–428) (Plasmodium falciparum, UniProt Q8I719); assay: FP binding measurements, isolated PfCNB-C domain
T16 construct: 275–428 for CNB-C; His-tag (pQTEV, TEV site) (N, cleaved yes); made in house; host or cells: E. coli TP2000 (delta-cya)
T16 sequence (Q8I719 275-428): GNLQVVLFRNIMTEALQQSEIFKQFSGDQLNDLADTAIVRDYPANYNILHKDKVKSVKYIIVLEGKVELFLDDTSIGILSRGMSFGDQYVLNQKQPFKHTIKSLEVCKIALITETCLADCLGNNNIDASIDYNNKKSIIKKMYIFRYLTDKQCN
Description: A manually designed construct consisting of PfPKG amino acids 1–853 with codons optimized for expression in E.coli was synthesized at Life Technologies. All PfPKG constructs were ligated into the His-tagged bacterial expression vector, pQTEV [28]. In designing the expression constructs of each CNB, we used the sequence of the cGMP selective CNB-B that we recently reported. The domain boundaries for the individual constructs are: residues 1–173 for CNB-A, 158–294 for CNB-B, 275–428 for CNB-C and 401–542 for CNB-D. All PfPKG proteins were expressed in TP2000 E. coli. The cells were grown at 37 °C to an OD600nm of 0.6, then induced with 0.5 mM IPTG, and grown for an additional 10 hours at 25 °C. Cells were harvested by centrifugation, then resuspended in 50 mM potassium phosphate (pH 7.5), 500 mM NaCl and 1 mM β-mercaptoethanol, and lysed using a cell disruptor (Constant Systems).
The direct fluorescence polarization (FP) assay was performed following the procedure from Moll et al. Measurements were performed in 150 mM NaCl, 20 mM MOPS plus 0.005% (w/v) CHAPS pH 7.0 using the Fusion a-FP microtiter plate reader at room temperature in a 384 well microtiterplate (Perkin Elmer, Optiplate, black). The protein concentration was varied while the concentration of 8-Fluo-cAMP/8-Fluo-cGMP (Biolog Life Science Institute (Bremen, Germany)) was fixed at 1–5 nM. […] The KD values were calculated from sigmoidal dose-response curves.
For competition FP experiments, the protein concentration and the concentration of 8-Fluo-cGMP were fixed to give a polarization signal that was 50% of the maximum value obtained from direct FP measurements. […] FP signals were detected as indicated above. Data were analyzed with GraphPad Prism 5.03 by plotting the polarization signal in mPol against the logarithm of the cyclic nucleotide concentration. The EC50 values were calculated from sigmoidal dose-response curves.

## CN(C)Cc1ccn2c(-c3ccnc(N)n3)c(-c3ccc(F)cc3)nc2c1 [compound 2]
[1]
  parasite growth in the presence of compound: did not proliferate
[2]
  parasite growth in the presence of compound: did not proliferate
[3]
  parasite growth in the presence of compound: able to grow at a similar rate to the allelic replacement control line
[4]
  progression from schizont to ring stage parasites: did not progress to ring stage parasites
PfPKG T618Q mutant
  sensitivity of the kinase to the inhibitor: no longer sensitive
[5]
  ring stage parasites observed: high levels of ring stage parasites

## Nc1nc2c(ncn2[C@@H]2O[C@@H]3COP(=O)(O)O[C@H]3[C@H]2O)c(=O)[nH]1 [cGMP, Cyclic GMP]
PfCNB-C
  cGMP binding: could not be detected
PfPKG (1-853) Wild Type
  Ka ± SEM (n), activation constant: 66 nM
PfPKG (1-853) D533A
  Ka ± SEM (n), activation constant: 330 nM
[6]
  increase of Ka:cGMP on mutating all three residues: over 28 fold
Human PKG Iβ CNB-B
  EC50: 215 nM
[7]; PfCNB-D wild type, competition with 8-Fluo-cGMP, read-out: EC50 ± SEM (n) competition experiments
  EC50: 38 nM and 37.8 nM
[7]; PfCNB-D, cGMP over cAMP
  selectivity for cGMP: over 190 fold
[8]
  EC50: 1000 nM
[9]
  EC50: 960 ± 20 nM
[10]
  EC50: 79 ± 4 nM
[11]
  EC50: 2400 ± 100 nM
[12]
  EC50: 3200 ± 400 nM
[13]
  EC50: 2200 ± 100 nM
[14]
  EC50: 610 ± 50 nM
[15]
  EC50: 760 ± 40 nM
[16]
  EC50: 1400 ± 100 nM
[17]
  EC50: 7000 nM and 7200 nM
[18]
  EC50: 1200 nM
[19]
  increase in the activation constant for cGMP (Ka:cGMP): 10 fold
[20]
  cGMP binding: little to no binding
